Reference: US11285127B2, “Compositions and methods for lowering triglycerides without raising LDL-C levels in a subject on concomitant statin therapy” (Amarin Pharmaceuticals Ireland Limited, priority 2013, dated 2022)

System: patients with fasting triglyceride levels >200 mg/dl and <500 mg/dl despite statin therapy
Assay: 12-week study: lipid profile (TC, LDL-C, HDL-C, non-HDL-C, VLDL-C, VLDL-TG, RLP-C)
Format: in vivo, human
Conditions: for LDL-C Median % chg from BL / Non-HDL-C Diff from pbo (median % chg, Hodges-Lehmann) / Non-HDL-C EOT Median / Non-HDL-C Median % chg from BL / LDL-C Diff from pbo (median % chg, Hodges-Lehmann) / LDL-C EOT Median: AMR 101 4 g + statin
Text: Parameters (a)-(z) can be measured in accordance with any clinically acceptable methodology. For example, triglycerides, total cholesterol, HDL-C and fasting blood sugar can be sample from serum and analyzed using standard photometry techniques. VLDL-TG, LDL-C and VLDL-C can be calculated or determined using serum lipoprotein fractionation by preparative ultracentrifugation and subsequent quantitative analysis by refractometry or by analytic ultracentrifugal methodology. Apo A1, Apo B and hsCRP can be determined from serum using standard nephelometry techniques. Lipoprotein (a) can be determined from serum using standard turbidimetric immunoassay techniques. LDL particle number and particle size can be determined using nuclear magnetic resonance (NMR) spectrometry. Remnants lipoproteins and LDL-phospholipase A2 can be determined from EDTA plasma or serum and serum, respectively, using enzymatic immunoseparation techniques. Oxidized LDL, intercellular adhesion molecule-1 and interleukin-2 levels can be determined from serum using standard enzyme immunoassay techniques. These techniques are described in detail in standard textbooks, for example Tietz Fundamentals of Clinical Chemistry, 6th Ed. (Burtis, Ashwood and Borter Eds.), WB Saunders Company.
A multi-center, placebo-controlled, randomized, double-blind, 12-week study was performed to evaluate the efficacy and safety of >96% E-EPA in patients with fasting triglyceride levels >200 mg/dl and <500 mg/dl despite statin therapy (the mean of two qualifying entry values needed to be >185 mg/dl and at least one of the values needed to be >200 mg/dl). The primary objective of the study was to determine the efficacy of >96% E-EPA 2 g daily and 4 g daily, compared to placebo, in lowering fasting TG levels in patients with high risk for cardiovascular disease and with fasting TG levels 200 mg/dl and <500 mg/dl, despite treatment to LDL-C goal on statin therapy.
The secondary objectives of this study were the following: • 1. To determine the safety and tolerability of >96% E-EPA 2 g daily and 4 g daily; • 2. To determine the effect of >96% E-EPA on lipid and apolipoprotein profiles including total cholesterol (TC), non-high-density lipoprotein cholesterol (non-HDL-C), low density lipoprotein cholesterol (LDL-C), high density lipoprotein cholesterol (HDL-C), and […]; • 3. To determine the effect of >96% E-EPA on lipoprotein associated phospholipase A2 (Lp-PLA2) from baseline to week 12; • 4. To determine the effect of >96% E-EPA on low-density lipoprotein (LDL) particle number and size; • 5. To determine the effect of >96% E-EPA on oxidized LDL; • 6. To determine the effect of >96% E-EPA on fasting plasma glucose (FPG) and hemoglobin A1c (HbA1c); • 7. To determine the effect of >96% E-EPA on insulin resistance; • 8. To determine the effect of >96% E-EPA on high-sensitivity C-reactive protein (hsCRP); • 9. To determine the effects of >96% E-EPA 2 g daily and 4 g daily on the incorporation of fatty acids into red blood cell membranes and into plasma phospholipids; • 10. To explore the relationship between baseline fasting TG levels and the reduction in fasting TG levels; and • 11. To explore the relationship between changes of fatty acid concentrations in plasma and red blood cell membranes, and the reduction in fasting TG levels.
The primary efficacy variable for the double-blind treatment period was percent change in TG from baseline to Week 12 endpoint. […]

[1] = Non-statin Washout Yes, Week 12 endpoint, MITT
[2] = baseline TG tertile Highest (≥289.5 mg/dL), Week 12 endpoint, MITT
[3] = baseline TG tertile Lowest (<230.5 mg/dL), Week 12 endpoint, MITT
[4] = baseline TG tertile Middle (230.5 to <289.5 mg/dL), Week 12 endpoint, MITT
[5] = AMR101 4 g/d + statin, Week 12 endpoint, MITT
[6] = AMR101 4 g/d + statin, percent change from baseline to Week 12 endpoint, MITT
[7] = IPE 4 g/day (n = 216), 12 weeks, patients with lipoprotein data
[8] = IPE 4 g/day vs placebo, 12 weeks, Hodges-Lehmann median

## CC/C=C\C/C=C\C/C=C\C/C=C\C/C=C\CCCC(=O)OCC [AMR101, ethyl eicosapentaenoate]
[1]
  LDL-C Median % chg from BL: −1.4%
  Non-HDL-C Diff from pbo (median % chg, Hodges-Lehmann): −14.4%
  Non-HDL-C EOT Median: 124 mg/dL
  Non-HDL-C Median % chg from BL: −5.4%
[2]
  LDL-C Diff from pbo (median % chg, Hodges-Lehmann): 0%
  LDL-C EOT Median: 83.0
  LDL-C Median % chg from BL: 4.8%
  Non-HDL-C Diff from pbo (median % chg, Hodges-Lehmann): −17.6%
  Non-HDL-C EOT Median: 130
  Non-HDL-C Median % chg from BL: −6.9%
[3]
  LDL-C Diff from pbo (median % chg, Hodges-Lehmann): −12.2%
  LDL-C EOT Median: 83.0
  LDL-C Median % chg from BL: −3.9%
  Non-HDL-C Diff from pbo (median % chg, Hodges-Lehmann): −13.8%
  Non-HDL-C EOT Median: 118
  Non-HDL-C Median % chg from BL: −2.0%
[4]
  LDL-C Diff from pbo (median % chg, Hodges-Lehmann): −5.8%
  LDL-C EOT Median: 82.5
  LDL-C Median % chg from BL: 2.1%
  Non-HDL-C Diff from pbo (median % chg, Hodges-Lehmann): −9.5%
  Non-HDL-C EOT Median: 124
  Non-HDL-C Median % chg from BL: −4.0%
AMR101 4 g/d + statin, MITT
  HDL-C Week 12 EP Median (IQR): 37.0 (13.0) mg/dL
  LDL-C Week 12 EP Median (IQR): 83.0 (31.0) mg/dL
  Non-HDL-C Week 12 EP Median (IQR): 122.0 (39.0) mg/dL
  RLP-C Week 12 EP Median (IQR): 10.0 (6.0) mg/dL
  Total cholesterol Week 12 EP Median (IQR): 162.0 (38.0) mg/dL
  VLDL-C Week 12 EP Median (IQR): 38.0 (22.0) mg/dL
  VLDL-TG Week 12 EP Median (IQR): 147.0 (88.0) mg/dL
[5]
  HDL-C Percent change from Baseline Median (IQR): −1.0 (18.2) %
  LDL-C Percent change from Baseline Median (IQR): 1.5 (26.6) %
  Non-HDL-C Percent change from Baseline Median (IQR): −5.0 (21.3) %
  RLP-C Percent change from Baseline Median (IQR): −24.0 (45.5) %
  Total cholesterol Percent change from Baseline Median (IQR): −3.2 (16.8) %
  VLDL-C Percent change from Baseline Median (IQR): −12.1 (47.9) %
  VLDL-TG Percent change from Baseline Median (IQR): −19.2 (46.2) %
[6]
  HDL-C Difference from placebo Estimated median: −4.5%
  LDL-C Difference from placebo Estimated median: −6.2%
  Non-HDL-C Difference from placebo Estimated median: −13.6%
  RLP-C Difference from placebo Estimated median: −25.8%
  Total cholesterol Difference from placebo Estimated median: −12.0%
  VLDL-C Difference from placebo Estimated median: −24.4%
  VLDL-TG Difference from placebo Estimated median: −26.5%
[7]
  HDL-C, Change From Baseline, % (median): −2.2%
  HDL-C, End of Treatment (median): 36.5 mg/dL
  LDL-C, Change From Baseline, % (median): 2.1%
  LDL-C, End of Treatment (median): 83.0 mg/dL
  Non-HDL-C, Change From Baseline, % (median): −5.1%
  Non-HDL-C, End of Treatment (median): 122.0 mg/dL
[8]
  HDL-C, Median Change From Baseline IPE 4 g/day vs Placebo, %: −5.0%
  LDL-C, Median Change From Baseline IPE 4 g/day vs Placebo, %: −5.2%
  Non-HDL-C, Median Change From Baseline IPE 4 g/day vs Placebo, %: −13.5%
